In US9108957B2 (MITSUBISHI TANABE PHARMA CORPORATION, priority 2009, dated 2015):

Target: human recombinant TPK1 (Homo sapiens, UniProt P49841)
Assay: Inhibitory activity against P-GS1 phosphorylation by TPK1 (Kinase Glo luminescence)
Assay type: biochemical
Details: 7.5 μM P-GS1, 10 μM ATP, 25° C. for 16 hours, Kinase Glo Reagent luminescent signal
Method: Inhibitory Activity of the Medicament of the Present Invention Against P-GS1 Phosphorylation by Bovine Cerebral TPK1
A mixture containing 100 mM HEPES-sodium hydroxide (pH 7.2), 1 mM magnesium acetate, 1 mM EGTA, 1 mM dithiothreitol (DTT), 0.02% Tween 20, 7.5 μM P-GS1, 10 μM ATP, human recombinant TPK1 and a compound shown in Table (a final mixture contained 1% DMSO deriving from a solution of a test compound prepared in the presence of 10% DMSO) was used as a reaction system. The phosphorylation was started by adding ATP, and the reaction was conducted at 25° C. for 16 hours. Then equal volume of Kinase Glo Reagent (Promega) was added to the mixture and luminescent signal from the mixture was measured. IC50 for each compound was calculated by setting the data of mixture without enzyme as 0% activity and that without compound as 100% activity.

Sequence of human recombinant TPK1 (P49841 whole entry): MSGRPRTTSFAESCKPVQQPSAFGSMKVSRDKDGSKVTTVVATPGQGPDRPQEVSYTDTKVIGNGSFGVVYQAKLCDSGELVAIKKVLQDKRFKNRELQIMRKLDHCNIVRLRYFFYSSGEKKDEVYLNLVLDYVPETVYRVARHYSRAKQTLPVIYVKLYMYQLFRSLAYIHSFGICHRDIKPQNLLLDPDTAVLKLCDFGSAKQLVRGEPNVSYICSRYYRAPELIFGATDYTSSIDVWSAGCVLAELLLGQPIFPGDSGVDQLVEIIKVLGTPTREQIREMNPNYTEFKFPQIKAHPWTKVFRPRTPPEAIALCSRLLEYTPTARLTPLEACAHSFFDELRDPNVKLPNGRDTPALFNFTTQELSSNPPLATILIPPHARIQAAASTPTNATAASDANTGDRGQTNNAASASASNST

Row | IC50 [nM] | Structure (SMILES)
1 | 83.4 | Cc1noc(-c2ccc(C3CCN(c4nc(-c5ccncn5)cc(=O)n4C)CCO3)cc2)n1 (single isomer, unassigned; (-)) [Compound A121, (−)-2-[7-[4-(3-methyl-1,2,4-oxadiazol-5-yl)-phenyl]-1,4-oxazepan-4-yl]-3-methyl-6-(pyrimidin-4-yl)pyrimidin-4(3H)-one]
2 | 23.5 | Cc1nc(-c2ccc(C3CN(c4nc(-c5ccncn5)cc(=O)n4C)CCCO3)cc2)no1 (stereo in doubt) [Compound A034, (R)-2-[2-[4-(5-methyl-1,2,4-oxadiazol-3-yl)-phenyl]-1,4-oxazepan-4-yl]-3-methyl-6-(pyrimidin-4-yl)pyrimidin-4(3H)-one]
3 | 17.6 | Cn1c(N2CCCO[C@@H](c3ccc(C#N)cc3)C2)nc(-c2ccncn2)cc1=O [Compound A028, (S)-2-[2-(4-cyanophenyl)-1,4-oxazepan-4-yl]-3-methyl-6-(pyrimidin-4-yl)pyrimidin-4(3H)-one]
4 | 10.8 | Cn1c(N2CCOCC(c3ccc(-c4ncno4)cc3)C2)nc(-c2ccncn2)cc1=O (stereo not shown) [Compound A080, 2-[6-[4-(1,2,4-oxadiazol-5-yl)-phenyl]-1,4-oxazepan-4-yl]-3-methyl-6-(pyrimidin-4-yl)pyrimidin-4(3H)-one]
5 | 7.3 | Cn1c(N2CCCO[C@@H](c3ccc(C#N)cc3)C2)nc(-c2ccncc2F)cc1=O [Compound A013, (S)-2-[2-(4-cyanophenyl)-1,4-oxazepan-4-yl]-6-(3-fluoropyridin-4-yl)-3-methylpyrimidin-4(3H)-one]
6 | 3.5 | Cn1c(N2CCCO[C@@H](c3ccc(C(N)=O)cc3)C2)nc(-c2ccncc2F)cc1=O [Compound A007, (S)-2-[2-(4-aminocarbonylphenyl)-1,4-oxazepan-4-yl]-6-(3-fluoropyridin-4-yl)-3-methylpyrimidin-4(3H)-one]
7 | 5.5 | Cn1c(N2CCCO[C@@H](c3ccc(Br)cc3)C2)nc(-c2ccncc2F)cc1=O [Compound A010, (S)-2-[2-(4-bromophenyl)-1,4-oxazepan-4-yl]-6-(3-fluoropyridin-4-yl)-3-methylpyrimidin-4(3H)-one]
8 | 92.1 | Cc1nc(-c2ccc([C@@H]3CN(c4nc(-c5ccncc5F)cc(=O)n4C)CCCO3)cc2)no1 [Compound A052, (R)-2-[2-[4-(5-methyl-1,2,4-oxadiazol-3-yl)-phenyl]-1,4-oxazepan-4-yl]-6-(3-fluoropyridin-4-yl)-3-methylpyrimidin-4(3H)-one]

Further lines, the compound ahead of its results:

Row | Structure (SMILES) | IC50 [nM]
9 | Cn1c(N2CCCO[C@@H](c3cccc(C(N)=O)c3)C2)nc(-c2ccncc2F)cc1=O [Compound A012] | 6.7
10 | COc1ccccc1C1CCN(c2nc(-c3ccncc3)cc(=O)n2C)CCO1 (stereo not shown) [Compound A115, 2-(7-(2-methoxyphenyl)-1,4-oxazepan-4-yl)-3-methyl-6-(pyridin-4-yl)pyrimidin-4(3H)-one] | 47.6
11 | Cn1c(N2CCOC(c3ccc(F)cc3)CC2)nc(-c2ccncc2)cc1=O (stereo not shown) [Compound A123, 2-[7-(4-fluorophenyl)-1,4-oxazepan-4-yl]-3-methyl-6-(pyridin-4-yl)pyrimidin-4(3H)-one] | 153
12 | Cn1c(N2CCCO[C@H](c3cccc(C#N)c3)C2)nc(-c2ccncc2F)cc1=O [Compound A047] | 67.5
13 | CC1CN(c2nc(-c3ccncc3)cc(=O)n2C)CCCO1 (stereo not shown) [Compound A061, 2-(2-methyl-1,4-oxazepan-4-yl)-3-methyl-6-(pyridin-4-yl)pyrimidin-4(3H)-one] | 446
14 | Cn1c(N2CCCO[C@H](c3cccc(Br)c3)C2)nc(-c2ccncc2)cc1=O [Compound A023, (R)-2-[2-(3-bromophenyl)-1,4-oxazepan-4-yl]-3-methyl-6-(pyridin-4-yl)pyrimidin-4(3H)-one] | 12.7
15 | Cn1c(N2CCOCCC2c2ccccc2)nc(-c2ccncc2F)cc1=O (stereo not shown) [Compound A066, 6-(3-fluoropyridin-4-yl)-3-methyl-2-(5-phenyl-1,4-oxazepan-4-yl)pyrimidin-4(3H)-one] | 5.5
16 | CCC1CCOCCN1c1nc(-c2ccncn2)cc(=O)n1C (stereo not shown) [Compound A073, 3-methyl-2-(5-ethyl-1,4-oxazepan-4-yl)-6-(pyrimidin-4-yl)pyrimidin-4(3H)-one] | 195
